Legend:
heart rate = details: Starling heart-lung preparation of the dog; cited from earlier work
[1] = tested on: muscarinic receptors in cortex; experiment: [3H]oxotremorine-M displacement assay, cortical membranes; assay type: binding, rat; details: for [3H]Oxotremorine-M maximum displacement: 1 nM [3H]OXO, 21°C, 90 min, mean ± S.E.
[2] = biological target: T1, muscarinic receptors in heart (Rattus norvegicus, UniProt P10980); experiment: [3H]oxotremorine-M displacement assay, cardiac membranes; assay type: binding; details: for [3H]Oxotremorine-M maximum displacement: 1 nM [3H]OXO, 21°C, 90 min, mean ± S.E.
T1 sequence (P10980 1-466): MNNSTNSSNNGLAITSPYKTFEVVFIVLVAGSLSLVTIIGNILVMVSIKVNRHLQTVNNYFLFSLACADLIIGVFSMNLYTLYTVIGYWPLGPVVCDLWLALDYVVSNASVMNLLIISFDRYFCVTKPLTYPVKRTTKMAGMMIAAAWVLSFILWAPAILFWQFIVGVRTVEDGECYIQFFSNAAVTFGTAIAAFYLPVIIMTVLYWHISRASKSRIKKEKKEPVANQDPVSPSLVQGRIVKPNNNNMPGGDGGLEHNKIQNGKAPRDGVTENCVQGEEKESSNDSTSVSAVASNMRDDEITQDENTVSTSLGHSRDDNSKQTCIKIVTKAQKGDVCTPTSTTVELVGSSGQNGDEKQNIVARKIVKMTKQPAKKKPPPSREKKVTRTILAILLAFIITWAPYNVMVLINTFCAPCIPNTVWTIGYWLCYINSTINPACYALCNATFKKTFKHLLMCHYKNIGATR

[3] = tested on: cardiac muscarinic receptors; details: cited from earlier work
BChE in rat heart = BChE in rat heart (Rattus norvegicus, UniProt Q9JKC1); experiment: Radiometric cholinesterase assay, BChE activity in cardiac homogenates; assay type: biochemical
Chain of BChE in rat heart (Q9JKC1 24-597): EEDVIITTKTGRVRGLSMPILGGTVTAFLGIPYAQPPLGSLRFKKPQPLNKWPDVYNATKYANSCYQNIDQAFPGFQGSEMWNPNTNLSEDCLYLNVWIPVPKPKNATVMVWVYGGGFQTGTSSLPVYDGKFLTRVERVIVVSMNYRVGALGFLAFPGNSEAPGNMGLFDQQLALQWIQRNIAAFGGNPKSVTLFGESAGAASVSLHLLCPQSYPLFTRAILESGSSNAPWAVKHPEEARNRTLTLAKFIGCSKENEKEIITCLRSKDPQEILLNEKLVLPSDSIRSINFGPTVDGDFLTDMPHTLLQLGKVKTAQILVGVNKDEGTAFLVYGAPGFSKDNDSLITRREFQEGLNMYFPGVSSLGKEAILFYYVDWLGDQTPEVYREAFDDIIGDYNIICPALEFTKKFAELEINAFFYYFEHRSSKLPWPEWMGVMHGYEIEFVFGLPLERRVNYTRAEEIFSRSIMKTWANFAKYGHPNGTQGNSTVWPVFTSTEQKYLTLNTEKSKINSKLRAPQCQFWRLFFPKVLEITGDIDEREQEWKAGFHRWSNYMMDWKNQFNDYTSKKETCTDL

rats [4] = details: aged versus adult rats; cited from earlier work
rats [5] = details: cited from earlier work
AChE in rat heart = biological target: T2, AChE in rat heart (Rattus norvegicus, UniProt P37136); experiment: Radiometric cholinesterase assay, AChE activity in cardiac homogenates; assay type: biochemical; details: heart and cortex (Tables 2 and 3)
T2 sequence (P37136 32-614): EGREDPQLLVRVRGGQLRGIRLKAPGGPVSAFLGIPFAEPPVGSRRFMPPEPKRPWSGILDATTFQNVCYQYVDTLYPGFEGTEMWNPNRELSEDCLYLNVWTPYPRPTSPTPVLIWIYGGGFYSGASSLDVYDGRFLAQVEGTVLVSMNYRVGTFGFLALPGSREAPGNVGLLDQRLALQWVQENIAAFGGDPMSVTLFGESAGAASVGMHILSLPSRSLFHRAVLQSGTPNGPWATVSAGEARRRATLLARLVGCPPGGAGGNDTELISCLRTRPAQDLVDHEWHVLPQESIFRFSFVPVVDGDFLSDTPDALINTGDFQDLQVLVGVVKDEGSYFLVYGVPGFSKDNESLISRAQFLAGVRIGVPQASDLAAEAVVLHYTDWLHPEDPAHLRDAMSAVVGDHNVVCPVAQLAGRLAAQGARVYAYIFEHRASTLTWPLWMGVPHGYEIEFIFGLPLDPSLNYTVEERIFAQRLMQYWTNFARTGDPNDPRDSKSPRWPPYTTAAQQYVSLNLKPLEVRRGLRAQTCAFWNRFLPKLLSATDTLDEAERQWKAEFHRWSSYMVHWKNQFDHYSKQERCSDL

C=CC[N+](C)(C)c1ccc(CCC(=O)CCc2ccc([N+](C)(C)CC=C)cc2)cc1.[Br-].[Br-] [BW 284C51, 1,5-bis (allyldimethylammoniumphenyl) pentane-3-dibromide]
Effect on heart rate (heart rate): had no effect

CCOP(=O)(OCC)Oc1nc(Cl)c(Cl)cc1Cl [Chlorpyrifos oxon, O,O′-diethyl-O-3,5,6-trichloro-2-pyridinyl phosphate]
[3H]Oxotremorine-M maximum displacement ([1]; adult cortex membranes): 51 ± 2% | [3H]Oxotremorine-M maximum displacement ([1]; aging cortex membranes): 49 ± 3% | [3H]Oxotremorine-M maximum displacement ([2]; adult heart membranes): 50 ± 3% | [3H]Oxotremorine-M maximum displacement ([2]; aging heart membranes): 39 ± 4% | Nature of interaction with cardiac muscarinic receptors ([3H]OXO binding sites) [3]: irreversible | Sensitivity of BChE relative to AChE to inhibition in vitro (BChE in rat heart; heart and cortex, both age groups): 3.5–12 times

CCOP(=S)(OCC)Oc1nc(Cl)c(Cl)cc1Cl [Chlorpyrifos, O,O′-diethyl-O-3,5,6-trichloro-2-pyridinyl phosphorothioate]
Displacement of [3H]OXO radioligand binding (in words) ([1]; cortex, adult and aging rats, 30 pM-3 μM): did not displace | Sensitivity of aged rats to acute toxicity relative to adults (rats [4]): similar | oral LD50 (rats [5]): about 100 mg/kg | Displacement of [3H]OXO radioligand binding (in words) ([2]; heart, adult and aging rats, 30 pM-3 μM): did not displace

COP(=O)(OC)Oc1ccc([N+](=O)[O-])cc1 [Methyl paraoxon, O,O′-dimethyl-p-nitrophenyl-phosphate]
[3H]Oxotremorine-M maximum displacement ([1]; adult cortex membranes): 33 ± 2% | [3H]Oxotremorine-M maximum displacement ([1]; aging cortex membranes): 36 ± 2% | [3H]OXO displacement IC50 in aging cortex, fold higher than adult cortex ([1]; aging versus adult cortex): ~ 10 fold | Sensitivity of AChE relative to BChE to inhibition (AChE in rat heart): ~ 2 fold | [3H]Oxotremorine-M maximum displacement ([2]; adult heart membranes): 37 ± 3% | [3H]Oxotremorine-M maximum displacement ([2]; aging heart membranes): 29 ± 3%

COP(=S)(OC)Oc1ccc([N+](=O)[O-])cc1 [Methyl parathion, O,O′-dimethyl-p-nitrophenyl-phosphorothioate]
[3H]Oxotremorine-M maximum displacement ([1]; adult cortex membranes): 22 ± 3% | [3H]Oxotremorine-M maximum displacement ([1]; aging cortex membranes): 20 ± 3% | oral LD50 (rats [5]): about 20 mg/kg | [3H]Oxotremorine-M maximum displacement ([2]; adult heart membranes): 31 ± 3% | [3H]Oxotremorine-M maximum displacement ([2]; aging heart membranes): 26 ± 2% | Nature of interaction with cardiac muscarinic receptors ([3H]OXO binding sites) [3]: reversibly

CC(C)NP(=O)(NC(C)C)OP(=O)(NC(C)C)NC(C)C [iso-OMPA, tetraisopropylpyrophosphoramide]
IC50 (BChE in rat heart): 200 nM | IC50 against BChE in heart, fold lower than in cortex (BChE in rat heart; adult and aging, heart versus cortex): ~ 10 fold

CCOP(=S)(OCC)Oc1ccc([N+](=O)[O-])cc1 [parathion]
Sensitivity of aged rats to acute toxicity relative to adults (rats [4]): 3 fold
